The subject of data set [1] is rats having adenine-induced kidney failure. Details: species or system Sprague Dawley rats. To be noted: rat, in vivo, iv. The procedure:
(§1) Soc. Neph., 17; 107-112]. After 4 weeks, normal diet was given to all animals. A control group receiving normal diet during the entire course of the study was used as normal control animals. After the 4 weeks of adenine diet treatment, animals were dosed i.v. 3×/week for 2 or 8 weeks with calcitriol or 1,25-dihydroxyvitamin D2 at 0.01, 0.05, 0.1, 0.25 and 0.5 mg/kg. Serum, plasma kidney and parathyroid gland were collected after 2 and 8 weeks. iPTH and FGF23 in plasma and serum, respectively, were measured using a commercial Elisa kit. Serum calcium was measured using an ORTHO-CLINICAL VITROS 250 chemistry system or an o-cresolphthalein complexone-based assay. Serum phosphorus was measured using an ORTHO-CLINICAL VITROS 250 chemistry system or an ammonium molybdate-based assay. Fibronectin 1 was measured by real-time PCR from cDNA isolated from kidney.
(§2) These findings indicate that L25-dihydroxyvitamin D2 appears to be less likely to cause calcemia than 1,25-dihydroxyvitamin D3 at doses that have equivalent efficacy.

Data set [2] relates to ESRD human patients undergoing chronic hemodialysis. The format is in vivo. The source says: Up to 100 ESRD (End Stage Renal Disease) human patients undergoing chronic hemodialysis are studied in a multicenter, double-blind, placebo-controlled study. The selected patients reside in two major metropolitan areas within the continental U.S., have ages between 20 and 75 years, and have a history of secondary hyperparathyroidism. They have been on hemodialysis for at least four months, have a normal (or near normal) serum albumin, and have controlled serum phosphorus (often by using oral calcium phosphate binders).
On admission to the study, each patient is assigned at random to one of two treatment groups. One of these groups receives two consecutive 12-week courses of therapy with 1,25-dihydroxyvitamin D2; the other group receives one 12-week course of therapy with 1,25-dihydroxyvitamin D2 without interruption, by one 12-week course of placebo therapy. Each patient discontinues any 1α,25-dihydroxyvitamin D3 therapy for eight weeks prior to initiating 1,25-dihydroxyvitamin D2 therapy. Throughout this eight-week washout (or control) period and the two subsequent 12-week treatment periods, patients are monitored weekly for serum calcium and phosphorus. Serum intact PTH is monitored weekly or biweekly, and bone-specific serum markers, serum vitamin D metabolites, serum albumin, blood chemistries, hemoglobin and hematocrit are monitored at selected intervals.
During the study, patients undergo routine hemodialysis (three times per week) using a 1.24 mM calcium dialysate and ingest calcium phosphate binders (such as calcium carbonate or calcium acetate) in an amount sufficient to keep serum phosphate maintained in a range of 3.5 to 5.5 mg/dL. Patients who develop persistent mild hypercalcemia or mild hyperphosphatemia during the treatment periods reduce their 1,25-dihydroxyvitamin D2 dosage. […] Such patients are monitored at twice-weekly intervals until the serum calcium or phosphorus is normalized, and resume 1,25-dihydroxyvitamin D2 dosing.

Data set [3] concerns the target T1, DBP (Homo sapiens, UniProt P02774).
T1 sequence (P02774 17-474): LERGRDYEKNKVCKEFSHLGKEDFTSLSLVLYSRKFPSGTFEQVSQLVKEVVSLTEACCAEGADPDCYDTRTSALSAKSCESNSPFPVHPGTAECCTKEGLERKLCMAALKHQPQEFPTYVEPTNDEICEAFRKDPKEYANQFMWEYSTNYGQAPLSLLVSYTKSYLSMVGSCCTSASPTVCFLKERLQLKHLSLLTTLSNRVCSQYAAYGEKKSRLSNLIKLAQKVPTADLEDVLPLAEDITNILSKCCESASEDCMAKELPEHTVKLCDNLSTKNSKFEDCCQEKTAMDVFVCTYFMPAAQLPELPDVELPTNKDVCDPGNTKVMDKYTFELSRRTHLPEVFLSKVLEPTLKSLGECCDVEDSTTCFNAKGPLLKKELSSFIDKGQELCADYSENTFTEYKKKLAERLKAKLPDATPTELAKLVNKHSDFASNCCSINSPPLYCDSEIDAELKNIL
To be noted: cited from earlier work.

Data set [4] deals with rats having adenine-induced kidney failure. In words: iPTH levels in rats having adenine-induced kidney failure. As to conditions: for suppression of serum PTH (iPTH) levels: adenine treated animals, i.v. 3×/week, after two weeks of dosing. The data set is classed as in vivo, Sprague Dawley rats. The procedure: as §1, with “3×/week for 2 or 8 weeks with calcitriol or 1,25-dihydroxyvitamin D2 at 0.01, 0.05, 0.1, 0.25 and 0.5 mg/kg.” left out
For reference, PTH values are also shown for animals in the study fed a normal diet (without adenine).
as §2

In data set [5] the test system is renal FN1. In words: Renal FN1 (fibronectin 1) expression by real-time PCR in adenine rats. Details: extent of suppression of renal FN1 expression, compared to calcitriol-treated animals: dose or concentration left out as unconfirmed. The data set is classed as in vivo, Sprague Dawley rats. As to conditions: after 12 days of treatment; for suppression of renal FN1 expression, comparison of the two compounds: 0.1 mg/kg. As for the experimental part:
as §1
In general terms: Quantitative PCR measures a nucleic acid by following its amplification.

Data set [6] can be described thus: Stability of compounds in human intestine microsomes. The data set is classed as in vitro ADME. As to conditions: microsomes 22 mg/ml, NADPH-generating system, 60 min, 37° C. As for the experimental part: Equal parts of 0.1 M phosphate buffer (pH 7.4), NADPH, G-6-P, and G-6-P dehydrogenase were mixed to create a NADPH-generating system, and the final concentration of NADPH, G-6-P, and G-6-P dehydrogenase were 0.8 mM, 8 mM and 0.8 U/ml.
1,25-dihydroxyvitamin D2 and calcitriol were added in to the NADPH-generating system. The final concentrations of the two vitamin D compounds were each […]. A reaction was initiated by the addition of the human intestine microsomes (22 mg/ml) after a 5 min pre-incubation of the reaction at 37° C. After incubation for 60 min, the reaction was terminated by addition of cold 100% acetonitrile. An aliquot of the samples was injected into HPLC to determine the % remaining of the compound.

Data set [7] relates to rats having adenine-induced kidney failure. In words: Serum phosphorous in rats having adenine-induced kidney failure. The data set is classed as in vivo, Sprague Dawley rats. The procedure: as §1
Data set [8] deals with subjects with low serum 1,25-dihydroxyvitamin D. In words: Study in subjects with low serum 1,25-dihydroxyvitamin D (Example 1). The data set is classed as in vivo, human. The procedure: 1,25-dihydroxyvitamin D2 is used as a treatment for subjects with low serum 1,25-dihydroxyvitamin D in a study involving 50 adults, ages 18-85 years.
The subjects have serum 1,25-dihydroxyvitamin D levels below 20 pg/dL and complete an eight-week baseline period and then 24 weeks of therapy with orally administered 1,25-dihydroxyvitamin D2.
The initial dose of 1,25-dihydroxyvitamin D2 is 1.0 μg, with increases in steps of 0.5 μg/day permitted after four weeks. The maximum dosage is limited to 5.0 μg/day of 1,25-dihydroxyvitamin D2. Subjects are monitored at regular intervals for plasma iPTH, serum calcium and phosphorus, 24-hour and fasting urinary calcium, bone-specific serum markers, plasma total 1,25-dihydroxyvitamin D2 and routine blood chemistries and hematologies.

The test system of data set [9] is C2BBe1 cells. In words: Alkaline phosphatase and CYP24 in C2BBe1 cells (real-time PCR). The data set is classed as cell-based. To be noted: 100 nM, 10 nM, 8 hours at 37° C. The procedure: C2BBe1 cells were treated with […], 100 nM, and 10 nM 1,25-dihydroxyvitamin D2 and calcitriol. Cells were incubated for 8 hours at 37° C. The cells were then lysed in 1 ml of TRIzol reagent. RNA was isolated from cell lysates through phase separation, as per the manufacturer's instructions (INVITROGEN). After cDNA synthesis, real-time PCR was used to quantify alkaline phosphatase and CYP24.

Data set [10] relates to bone resorption. To be noted: in vivo; cited from earlier work.
The test system of data set [11] is Caco-2 cells. To be noted: cited from earlier work.
For data set [12] the following is noted: cited from earlier work.
Data set [13] relates to markers of bone metabolism. As to conditions: in culture; cited from earlier work.
The subject of data set [14] is healthy male humans. To be noted: cited from earlier work.

Like-named read-outs stand apart in the source and are kept apart here.

The values below come from patent US8592401B2, “Methods and compounds for vitamin D therapy” (Proventiv Therapeutics, LLC, priority 2007, dated 2013).

With `C=C1/C(=C\C=C2/CCC[C@]3(C)[C@@H]([C@H](C)/C=C/[C@H](C)C(C)(C)O)CC[C@@H]23)C[C@@H](O)C[C@@H]1O` [1,25-dihydroxyvitamin D2], the “doses showing significant elevation of serum calcium” value in data set [1] is “greater than 0.05 μg/kg”. The “mean serum PTH relative to pretreatment levels” value in data set [2] (after initiation of dosing) is recorded as “less than 50 % of pretreatment levels”. In addition, the “mean serum PTH in the active group” value in data set [2] (end of the second 12-week treatment period) was “remained controlled”. Further, the “hypercalcemia in patients exhibiting excessive suppression of serum PTH” value in data set [2] (human, in vivo) is listed as “transient mild hypercalcemia is observed”. Also, in data set [3], the “DBP binding compared with 1,25-dihydroxyvitamin D3” value is listed as “no significant difference”. Besides, in data set [4], the “suppression of serum PTH (iPTH) levels” value is “in a dose dependant manner can suppress serum PTH levels”. In addition, the PTH inhibition result in data set [4] (dose of 0.05 μg/kg) is listed as “about 82.7%”. Also, in data set [5], the “suppression of renal FN1 expression, comparison of the two compounds” value is given as “No difference in suppression” and the “extent of suppression of renal FN1 expression, compared to calcitriol-treated animals” value is “significantly greater”. The “metabolic stability (% remaining) in human intestinal microsomes” value in [6] was “metabolically unstable”. Further, the “elevation of serum phosphorous” value in data set [7] (adenine rats, i.v. 3×/week, doses 0.01-0.5) is recorded as “significance only at the highest dose”. Moreover, in data set [8], the “serum 1,25-dihydroxyvitamin D levels between doses” value is listed as “within the patients' normal historical physiological range”. In addition, the “induction of IAP (alkaline phosphatase) activity” value in data set [9] is recorded as “not a potent inducer of IAP activity”.

The half-life is the time needed for the level to fall by half in the phase considered. With `C[C@H](/C=C/[C@H](C)C(C)(C)O)[C@H]1CC[C@H]2/C(=C/C=C3C[C@@H](O)C[C@H](O)C3)CCC[C@]12C` [19-nor-1,25-dihydroxyvitamin D2], the “potency in promoting bone resorption relative to 1,25-dihydroxyvitamin D3” value in [10] is on record as “approximately 10 fold less potent”. Besides, in data set [3], the “affinity for DBP compared to 1,25-dihydroxyvitamin D3” value is 3 fold lower. In addition, in [11], the “stimulation of calcium transport” value was “did not show a significant effect”. In addition, the half-life was 4 to 6 h in data set [12] (healthy patients), 20 h in data set [12] (patients with Stage 4 CKD) and 15 h in data set [12] (patients with chronic renal failure). Further, the “effects on VDR expression, suppression of cell proliferation, osteocalcin and alkaline phosphatase activity versus 1,25-dihydroxyvitamin D3” value in data set [13] is “indistinguishable”.

On to `C=C1CC[C@H](O)C/C1=C/C=C1\CCC[C@]2(C)[C@@H]([C@H](C)/C=C/[C@H](C)C(C)C)CC[C@@H]12` [Vitamin D2, ergocalciferol], for which the “course of 25-hydroxyvitamin D2 levels” value in [14] (50,000 IU) was “fell early and were not different from baseline at 14 days”. The “potency relative to Vitamin D3” value in data set [14] (healthy male humans) is given as “less than one-third as potent”.

On to `C=C1CC[C@H](O)C/C1=C/C=C1\CCC[C@]2(C)[C@@H]([C@H](C)CCCC(C)C)CC[C@@H]12` [Vitamin D3, cholecalciferol], for which the “time of peak of 25-hydroxyvitamin D3 levels” value in [14] (50,000 IU) was 14 days.

Usually inhibition stands for the drop in the measured response relative to a control, in per cent. Consider `C=C1/C(=C\C=C2/CCC[C@]3(C)[C@@H]([C@H](C)CCCC(C)(C)O)CC[C@@H]23)C[C@@H](O)C[C@@H]1O` [calcitriol, 1α,25-dihydroxyvitamin D3], for which, in [1] (Sprague Dawley), the “doses showing significant elevation of serum calcium” value was “greater than 0.10 μg/kg”. Besides, the inhibition at 0.0001 mg/kg in data set [4] (Rattus norvegicus, read-out: PTH inhibition) was roughly 13.6%. Besides, the “suppression of serum PTH (iPTH) levels” value in [4] was “in a dose dependant manner can suppress serum PTH levels”. In data set [5], the “suppression of renal FN1 expression, comparison of the two compounds” value is “No difference in suppression”. Besides, the “stimulation of calcium transport” value in data set [11] is given as 934%. Further, in data set [7] (rat, in vivo, iv), the “elevation of serum phosphorous” value was “significant elevation of phosphorous at the two highest doses”.
